Holding throughout (type): functional
For one test, the system named is CCRF-CEM. Description: Cytotoxicity against human CCRF-CEM cells at 10^-7 M after 48 hrs by SRB assay. Conditions: read-out: GI. A general note: Sulforhodamine B stains cellular protein and so reports cell mass.
Another test has as its system M14. Put plainly: Cytotoxicity against human M14 cells at 10^-7 M after 48 hrs by SRB assay. The settings on record: M14, 48 h, read-out: GI.
For the next test, the system named is T47D. Put plainly: Cytotoxicity against human T47D cells at 10^-8 M after 48 hrs by SRB assay. The settings on record: read-out: GI.
The nature of test [1]: Cytotoxicity against human UO31 cells at 10^-7 M after 48 hrs by SRB assay. Conditions: UO-31, 48 h, read-out: GI.
In a further test the test system is DU-145. Description: Cytotoxicity against human DU145 cells at 10^-8 M after 48 hrs by SRB assay. Conditions: DU-145, 48 h, read-out: GI.
For another test, the system named is MCF7. Put plainly: Cytotoxicity against human MCF7 cells at 10^-8 M after 48 hrs by SRB assay. The settings on record: MCF7, 48 h, read-out: GI.
Another test deals with PC-3. Description: Cytotoxicity against human PC3 cells at 10^-7 M after 48 hrs by SRB assay. Conditions: PC-3, 48 h, read-out: GI.
Test [2] concerns A549. Description: Cytotoxicity against human A549 cells at 10^-8 M after 48 hrs by SRB assay. Conditions: A549, 48 h, read-out: GI.
In test [3] the test system is SNB-75. Put plainly: Cytotoxicity against human SNB75 cells at 10^-8 M after 48 hrs by SRB assay. The settings on record: SNB-75, 48 h, read-out: GI.
Another test has as its system SW-620. Description: Cytotoxicity against human SW620 cells at 10^-8 M after 48 hrs by SRB assay. The settings on record: SW-620, 48 h, read-out: GI.
Test [4] deals with HCC 2998. Put plainly: Cytotoxicity against human HCC2998 cells at 10^-8 M after 48 hrs by SRB assay. The settings on record: HCC 2998, 48 h, read-out: GI.
The next test has as its system IGROV-1. Put plainly: Cytotoxicity against human IGROV1 cells at 10^-8 M after 48 hrs by SRB assay. The settings on record: IGROV-1, 48 h, read-out: GI.
A further test concerns U-251. Put plainly: Cytotoxicity against human U251 cells at 10^-8 M after 48 hrs by SRB assay. Conditions: U-251, 48 h, read-out: GI.
For the next test, the system named is OVCAR-3. Put plainly: Cytotoxicity against human OVCAR3 cells at 10^-8 M after 48 hrs by SRB assay. The settings on record: OVCAR-3, 48 h, read-out: GI.
Test [5] concerns OVCAR-8. Put plainly: Cytotoxicity against human OVCAR8 cells at 10^-7 M after 48 hrs by SRB assay. The settings on record: OVCAR-8, 48 h, read-out: GI.
Test [6] deals with A549. Description: Cytotoxicity against human A549 cells at 10^-7 M after 48 hrs by SRB assay. Conditions: A549, 48 h, read-out: GI.
A short description of test [7]: Cytotoxicity against human OVCAR4 cells at 10^-8 M after 48 hrs by SRB assay. Conditions: OVCAR-4, 48 h, read-out: GI.
The subject of a further test is RPMI-8226. Put plainly: Cytotoxicity against human RPMI8226 cells at 10^-8 M after 48 hrs by SRB assay. The settings on record: RPMI-8226, 48 h, read-out: GI.
The next test relates to A498. Description: Cytotoxicity against human A498 cells at 10^-8 M after 48 hrs by SRB assay. Conditions: A498, 48 h, read-out: GI.
The test system of test [8] is OVCAR-8. Put plainly: Cytotoxicity against human OVCAR8 cells after 48 hrs by SRB assay. Conditions: OVCAR-8, 48 h.
Test [9] in a line: Cytotoxicity against human UO31 cells at 10^-8 M after 48 hrs by SRB assay. The settings on record: UO-31, 48 h, read-out: GI.
Test [10] can be described thus: Cytotoxicity against human UACC257 cells at 10^-7 M after 48 hrs by SRB assay. Conditions: UACC-257, 48 h, read-out: GI.
Test [11] relates to SNB-75. Put plainly: Cytotoxicity against human SNB75 cells at 10^-7 M after 48 hrs by SRB assay. The settings on record: SNB-75, 48 h, read-out: GI.
The subject of another test is LOX IMVI. Put plainly: Cytotoxicity against human LOXIMVI cells at 10^-7 M after 48 hrs by SRB assay. Conditions: read-out: GI.
Test [12] deals with HCC 2998. Put plainly: Cytotoxicity against human HCC2998 cells at 10^-7 M after 48 hrs by SRB assay. The settings on record: HCC 2998, 48 h, read-out: GI.
In a further test the test system is SK-OV-3. Description: Cytotoxicity against human SKOV3 cells at 10^-8 M after 48 hrs by SRB assay. Conditions: SK-OV-3, 48 h, read-out: GI.
The nature of test [13]: Cytotoxicity against human UO31 cells at 10^-6 M after 48 hrs by SRB assay. The settings on record: UO-31, 48 h, read-out: GI.
Another test deals with HCT-15. Description: Cytotoxicity against human HCT15 cells at 10^-8 M after 48 hrs by SRB assay. The settings on record: HCT-15, 48 h, read-out: GI.
In a further test the test system is SF-539. Description: Cytotoxicity against human SF539 cells at 10^-8 M after 48 hrs by SRB assay. The settings on record: SF-539, 48 h, read-out: GI.
The test system of another test is CAKI-1. Put plainly: Cytotoxicity against human Caki1 cells at 10^-7 M after 48 hrs by SRB assay. The settings on record: CAKI-1, 48 h, read-out: GI.
Test [14] in a line: Cytotoxicity against human OVCAR5 cells at 10^-7 M after 48 hrs by SRB assay. Conditions: OVCAR-5, 48 h, read-out: GI.
The test system of the next test is MOLT-4. Description: Cytotoxicity against human MOLT4 cells at 10^-8 M after 48 hrs by SRB assay. The settings on record: MOLT-4, 48 h, read-out: GI.
The test system of a further test is COLO 205. Put plainly: Cytotoxicity against human COLO205 cells at 10^-8 M after 48 hrs by SRB assay. The settings on record: COLO 205, 48 h, read-out: GI.
Another test deals with SK-MEL-2. Description: Cytotoxicity against human SK-MEL-2 cells at 10^-7 M after 48 hrs by SRB assay. Conditions: SK-MEL-2, 48 h, read-out: GI.
For a further test, the system named is NCI-H226. Description: Cytotoxicity against human NCI-H226 cells at 10^-8 M after 48 hrs by SRB assay. The settings on record: NCI-H226, 48 h, read-out: GI.
A further test concerns SNB-19. Description: Cytotoxicity against human SNB19 cells at 10^-8 M after 48 hrs by SRB assay. The settings on record: SNB-19, 48 h, read-out: GI.
In test [15] the test system is HCC 2998. Put plainly: Cytotoxicity against human HCC2998 cells at 10^-6 M after 48 hrs by SRB assay. Conditions: HCC 2998, 48 h, read-out: GI.
The subject of another test is MDA-MB-435. Description: Cytotoxicity against human MDA-MB-435 cells at 10^-8 M after 48 hrs by SRB assay. The settings on record: MDA-MB-435, 48 h, read-out: GI.
The next test relates to MDA-MB-231. Description: Cytotoxicity against human MDA-MB-231 cells at 10^-7 M after 48 hrs by SRB assay. Conditions: MDA-MB-231, 48 h, read-out: GI.
Test [16] relates to HCC 2998. Put plainly: Cytotoxicity against human HCC2998 cells at 10^-5 M after 48 hrs by SRB assay. Conditions: HCC 2998, 48 h, read-out: GI.
The test system of the next test is K562. Put plainly: Cytotoxicity against human K562 cells at 10^-6 M after 48 hrs by SRB assay. The settings on record: K562, 48 h, read-out: GI.
The test system of another test is SR. Put plainly: Cytotoxicity against human SR cells at 10^-4 M after 48 hrs by SRB assay. The settings on record: read-out: GI.
Test [17] relates to Malme-3M. Description: Cytotoxicity against human MALME-3M cells at 10^-6 M after 48 hrs by SRB assay. The settings on record: read-out: GI.
Test [18] relates to Malme-3M. Put plainly: Cytotoxicity against human MALME-3M cells at 10^-5 M after 48 hrs by SRB assay. The settings on record: read-out: GI.

Bounds are passed on as bounds.

Consider `CCN(Cc1nc2cc(C(F)(F)F)ccc2nc1-c1ccccc1)c1ccc(OC)c(OC)c1`, for which the inhibition of growth at 0.1 µM was below 40% with CCRF-CEM; below 40% in the test with M14; below 40% in test [1]; below 40% with PC-3; 25% with OVCAR-8 [5]; 42% in the test on A549 [6]. The inhibition of growth at 0.1 µM was 67% in test [10]; below 40% in the test on SNB-75 [11]; below 40% in the test on LOX IMVI; below 40% in the test on HCC 2998 [12]; below 40% in the test on CAKI-1; below 40% in test [14]. The inhibition of growth at 0.1 µM with SK-MEL-2 and with MDA-MB-231 was below 40% in each case. For the same compound, the inhibition of growth at 0.01 µM in the test on T47D is below 40%; with DU-145, below 40%; in the test on MCF7, below 40%; in the test on A549 [2] it was 19%; with SNB-75 [3] it was below 40%; in the test on SW-620 it was below 40%. Moreover, the inhibition of growth at 0.01 µM (in the test on HCC 2998 [4]; in the test with IGROV-1; in the test with U-251; in the test on OVCAR-3; in [7]; with RPMI-8226) was below 40% in each case. Moreover, the inhibition of growth at 0.01 µM (in the test with A498; in test [9]; with SK-OV-3; in the test on HCT-15; in the test on SF-539; in the test on MOLT-4) was below 40% throughout. Also, the inhibition of growth at 0.01 µM with COLO 205, with NCI-H226, in the test on SNB-19 and with MDA-MB-435 was below 40% each time. In the test with OVCAR-8 [8], this compound gave a 50% growth inhibitory concentration (GI50) of 1510 nM. The inhibition of growth at 1 µM (in test [13]; in the test on HCC 2998 [15]; with K562) was below 40% each time. Also, in the test with HCC 2998 [16], the inhibition of growth at 10 µM worked out at 15%. Besides, the inhibition of growth at 100 µM in the test on SR came to 145%.

As to `C#CCN(Cc1nc2cc(C(F)(F)F)ccc2nc1-c1ccccc1)c1ccc(C)cc1`, the inhibition of growth at 1 µM in the test on Malme-3M [17] was below 40%. Besides, the inhibition of growth at 10 µM with Malme-3M [18] turned out to be 41%.

What is called GI50 is the concentration giving 50% growth inhibition. Low readings indicate greater sensitivity of the cells, high ones lower sensitivity of the cells.

Source of the values: ChEMBL document CHEMBL3120154, “2-[N-Alkyl(R-phenyl)-aminomethyl]-3-phenyl-7-trifluoromethylquinoxalines as anticancer agents inhibitors of folate enzymes” (Eur J Med Chem, 2014).
